In US20170088520A1, “DEUBIQUITINASE INHIBITORS” (PharmAkea, Inc., priority 2014, published 2017):

Tests used:
Assay type in all cases: cell-based
[1] = test system: Mcl-1 expression in cells (NCI-H929, Z138, MM.1S, A-375); assay: Analysis of Mcl-1 expression by Western blotting; conditions: compound tested at 5 μM; Western blot
How it was run: (§1)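 NCI-H929, Z138, MM.1S and A-375 cells were treated with compounds at 5 μM, and lysates were Western blotted with anti-Mcl-1 and anti-PARP antibodies, quantified by infrared fluorescence. Activity is a significant drop in Mcl-1 and the appearance of cleaved PARP, each relative to vehicle-treated cells.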

[2] = target: T1, DUB activity in cells (NCI-H929, Z138, MM.1S, A375) (Homo sapiens, UniProt Q93008); assay: HA-Ubiquitin-Vinylsulfone (HA-Ub-VS) cell labeling assay; conditions: compound tested at 5 μM; HA-Ub-VS labeling of USP9x in cells
T1 construct: endogenous in cells; host or cells: NCI-H929, Z138, MM.1S, A375
How it was run: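 NCI-H929, Z138, MM.1S or A375 cells (1–2×10^6) treated 2–6 h at 37 °C with compound in 0.5% DMSO, here 5 μM. Lysates labeled with HA-Ub-VS for 15–60 min at 37 °C. Labeled DUBs resolved by SDS-PAGE and quantified by anti-HA and anti-β-actin immunoblot with infrared detection.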

[3] = test system: PARP cleavage in cells (NCI-H929, Z138, MM.1S, A-375); assay: Analysis of PARP cleavage by Western blotting; conditions: compound tested at 5 μM; Western blot
How it was run: as §1

T1 sequence (Q93008 whole entry): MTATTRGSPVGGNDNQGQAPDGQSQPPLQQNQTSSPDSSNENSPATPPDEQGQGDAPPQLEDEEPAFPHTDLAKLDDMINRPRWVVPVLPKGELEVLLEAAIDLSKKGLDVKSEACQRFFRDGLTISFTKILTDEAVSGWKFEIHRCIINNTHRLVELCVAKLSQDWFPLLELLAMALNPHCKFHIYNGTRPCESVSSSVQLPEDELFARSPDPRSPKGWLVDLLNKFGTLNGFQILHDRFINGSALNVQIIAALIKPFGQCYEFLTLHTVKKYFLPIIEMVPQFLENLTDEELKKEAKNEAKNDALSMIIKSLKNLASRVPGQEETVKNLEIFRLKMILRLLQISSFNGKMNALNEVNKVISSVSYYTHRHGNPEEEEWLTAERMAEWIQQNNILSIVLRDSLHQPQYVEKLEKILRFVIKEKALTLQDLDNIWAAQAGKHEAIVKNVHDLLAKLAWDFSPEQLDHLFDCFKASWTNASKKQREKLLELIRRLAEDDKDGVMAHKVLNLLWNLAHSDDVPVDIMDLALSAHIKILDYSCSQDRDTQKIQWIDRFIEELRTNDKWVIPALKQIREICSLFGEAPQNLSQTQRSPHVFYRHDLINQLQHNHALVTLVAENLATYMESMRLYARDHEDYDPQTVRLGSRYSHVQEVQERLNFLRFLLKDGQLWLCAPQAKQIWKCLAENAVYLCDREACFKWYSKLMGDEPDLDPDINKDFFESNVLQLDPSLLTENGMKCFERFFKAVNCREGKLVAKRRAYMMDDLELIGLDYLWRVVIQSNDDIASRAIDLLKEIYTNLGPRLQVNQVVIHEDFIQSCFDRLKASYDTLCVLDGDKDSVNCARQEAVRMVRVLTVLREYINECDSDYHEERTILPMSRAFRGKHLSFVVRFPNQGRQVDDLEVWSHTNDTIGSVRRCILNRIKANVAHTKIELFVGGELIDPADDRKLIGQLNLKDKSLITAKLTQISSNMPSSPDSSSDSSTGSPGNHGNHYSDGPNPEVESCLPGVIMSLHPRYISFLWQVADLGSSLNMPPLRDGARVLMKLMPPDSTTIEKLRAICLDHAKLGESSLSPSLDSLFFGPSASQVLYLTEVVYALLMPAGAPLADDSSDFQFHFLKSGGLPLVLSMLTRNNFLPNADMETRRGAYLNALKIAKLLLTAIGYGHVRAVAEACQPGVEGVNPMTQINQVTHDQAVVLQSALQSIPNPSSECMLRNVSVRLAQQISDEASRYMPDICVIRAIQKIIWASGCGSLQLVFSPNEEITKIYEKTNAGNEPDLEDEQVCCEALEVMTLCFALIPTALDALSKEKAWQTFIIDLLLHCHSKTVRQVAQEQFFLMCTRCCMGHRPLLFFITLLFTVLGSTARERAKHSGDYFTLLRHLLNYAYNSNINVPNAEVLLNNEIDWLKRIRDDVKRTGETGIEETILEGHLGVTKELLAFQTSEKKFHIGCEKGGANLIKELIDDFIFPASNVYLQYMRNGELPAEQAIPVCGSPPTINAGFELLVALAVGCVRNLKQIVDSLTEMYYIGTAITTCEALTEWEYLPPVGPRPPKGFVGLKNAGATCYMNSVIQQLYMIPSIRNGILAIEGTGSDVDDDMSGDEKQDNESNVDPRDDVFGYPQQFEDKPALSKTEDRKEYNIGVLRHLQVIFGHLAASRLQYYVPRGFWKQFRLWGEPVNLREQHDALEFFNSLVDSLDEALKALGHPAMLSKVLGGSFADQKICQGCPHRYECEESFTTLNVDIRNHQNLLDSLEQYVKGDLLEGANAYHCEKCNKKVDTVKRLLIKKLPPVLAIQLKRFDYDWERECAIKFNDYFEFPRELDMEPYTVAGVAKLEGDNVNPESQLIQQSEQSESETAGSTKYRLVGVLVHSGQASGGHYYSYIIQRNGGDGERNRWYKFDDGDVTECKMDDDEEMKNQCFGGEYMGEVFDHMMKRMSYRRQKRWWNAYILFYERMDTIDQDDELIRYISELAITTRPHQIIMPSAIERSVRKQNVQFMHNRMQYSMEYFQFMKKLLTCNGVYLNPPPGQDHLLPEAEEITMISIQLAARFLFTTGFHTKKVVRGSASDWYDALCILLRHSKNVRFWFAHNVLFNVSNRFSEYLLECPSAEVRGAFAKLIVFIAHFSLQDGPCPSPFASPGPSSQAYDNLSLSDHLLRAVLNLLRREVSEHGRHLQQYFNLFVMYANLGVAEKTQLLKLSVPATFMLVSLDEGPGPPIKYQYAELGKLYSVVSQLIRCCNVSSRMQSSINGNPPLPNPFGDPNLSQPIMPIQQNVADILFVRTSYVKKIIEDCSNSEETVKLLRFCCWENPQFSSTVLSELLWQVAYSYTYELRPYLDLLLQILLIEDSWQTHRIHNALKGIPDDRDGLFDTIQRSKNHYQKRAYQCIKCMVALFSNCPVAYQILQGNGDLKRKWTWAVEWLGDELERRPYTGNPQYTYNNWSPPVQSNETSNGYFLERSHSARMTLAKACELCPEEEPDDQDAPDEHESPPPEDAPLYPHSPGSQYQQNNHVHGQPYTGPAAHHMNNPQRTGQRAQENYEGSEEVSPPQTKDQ

Row | inhibition at 5 µM [2] [%] | Structure (SMILES) | inhibition at 5 µM [1] [%] | PARP cleavage % Inhibition [3]
1 | 50 to 75 | Cn1cc(-c2ccc(C3(NC(=O)/C(C#N)=C/c4ncc(Br)cc4Br)CCCC3)cc2)cn1 [Compound 77, (E)-2-cyano-3-(3,5-dibromopyridin-2-yl)-N-(1-(4-(1-methyl-1H-pyrazol-4-yl)phenyl)cyclopentyl)acrylamide] | 50 to 75 | B (B is 50% to 75% inhibition)
2 | 50 to 75 | N#C/C(=C\c1cccc(Br)n1)C(=O)NC1(c2ccc(C#CCNCCO)cc2)CCCC1 [Compound 78, (E)-3-(6-bromopyridin-2-yl)-2-cyano-N-(1-(4-(3-((2-hydroxyethyl)amino)prop-1-yn-1-yl)phenyl)cyclopentyl)acrylamide] | < 25 | B (B is 50% to 75% inhibition)
3 | ≥ 75 | N#C/C(=C\c1cccc(Br)n1)C(=O)NC1(c2ccc(O)cc2)CCCC1 [Compound 79, (E)-3-(6-bromopyridin-2-yl)-2-cyano-N-(1-(4-hydroxyphenyl)cyclopentyl)acrylamide] | ≥ 75 | A (A is ≧75% inhibition)
4 | < 25 | N#C/C(=C\c1cccc(Br)n1)C(=O)NC1(c2ccccc2)CCOC1 (stereo not drawn) [Compound 80, (E)-3-(6-bromopyridin-2-yl)-2-cyano-N-(3-phenyltetrahydrofuran-3-yl)acrylamide] | < 25 | D (D is <25% inhibition)
5 | 50 to 75 | N#C/C(=C\c1cccc(Br)n1)C(=O)NC1(c2cccc(CO)c2)CCCC1 [Compound 81, (E)-3-(6-bromopyridin-2-yl)-2-cyano-N-(1-(3-(hydroxymethyl)phenyl)cyclopentyl)acrylamide] | 25 to 50 | A (A is ≧75% inhibition)
6 | < 25 | N#C/C(=C\c1cccc(C2CC2)n1)C(=O)NC1(c2ccc(-c3cccc(C(=O)O)c3)cc2)CCCC1 [Compound 82, (E)-4′-(1-(2-cyano-3-(6-cyclopropylpyridin-2-yl)acrylamido)cyclopentyl)-[1,1′-biphenyl]-3-carboxylic acid] | 50 to 75 | A (A is ≧75% inhibition)
7 | < 25 | N#C/C(=C\c1cccc(N2CCCC2)n1)C(=O)NC1(c2ccccc2)CCCC1 [Compound 83, (E)-2-cyano-N-(1-phenylcyclopentyl)-3-(6-(pyrrolidin-1-yl)pyridin-2-yl) acrylamide] | < 25 | D (D is <25% inhibition)
8 | < 25 | CCCCCCCCCCCCCC(=O)OCc1ccc(C2(NC(=O)/C(C#N)=C/c3cccc(Br)n3)CCCC2)cc1 [Compound 84, (E)-4-(1-(3-(6-bromopyridin-2-yl)-2-cyanoacrylamido)cyclopentyl)benzyl tetradecanoate] | < 25 | D (D is <25% inhibition)
9 | 25 to 50 | N#C/C(=C\c1cccc(Br)n1)C(=O)NC1(c2ccc(COC(=O)CCCCCN3C(=O)C=CC3=O)cc2)CCCC1 [Compound 85, (E)-4-(1-(3-(6-bromopyridin-2-yl)-2-cyanoacrylamido)cyclopentyl)benzyl 6-(2,5-dioxo-2,5-dihydro-1H-pyrrol-1-yl)hexanoate] | < 25 | C (C is 25% to 50% inhibition)
10 | 25 to 50 | CC(=O)OCc1ccc(C2(NC(=O)/C(C#N)=C/c3cccc(Br)n3)CCCC2)cc1 [Compound 87, (E)-4-(1-(3-(6-bromopyridin-2-yl)-2-cyanoacrylamido)cyclopentyl)benzyl acetate] | 50 to 75 | A (A is ≧75% inhibition)
11 | ≥ 75 | CC(C)(C)OC(=O)COc1ccc(C2(NC(=O)/C(C#N)=C/c3cccc(Br)n3)CCCC2)cc1 [Compound 88, (E)-tert-butyl 2-(4-(1-(3-(6-bromopyridin-2-yl)-2-cyanoacrylamido)cyclopentyl)phenoxy)acetate] | ≥ 75 | A (A is ≧75% inhibition)
12 | < 25 | N#C/C(=C\c1cccc(-c2cccc(C(=O)O)c2F)n1)C(=O)NC1(c2ccccc2)CCCC1 [Compound 89, (E)-3-(6-(2-cyano-3-oxo-3-((1-phenylcyclopentyl)amino)prop-1-en-1-yl)pyridin-2-yl)-2-fluorobenzoic acid] | < 25 | C (C is 25% to 50% inhibition)
13 | < 25 | N#C/C(=C\c1cccc(Br)n1)C(=O)NC1(c2ccc(-c3ccc(CC(=O)O)cc3)cc2)CCCC1 [Compound 90, (E)-2-(4′-(1-(3-(6-bromopyridin-2-yl)-2-cyanoacrylamido)cyclopentyl)-[1,1′-biphenyl]-4-yl)acetic acid] | 25 to 50 | D (D is <25% inhibition)
14 | 25 to 50 | N#C/C(=C\c1cccc(Br)n1)C(=O)NC1(c2ccc(-c3ccc(C(=O)O)cc3)cc2)CCCC1 [Compound 91, (E)-4′-(1-(3-(6-bromopyridin-2-yl)-2-cyanoacrylamido)cyclopentyl)-[1,1′-biphenyl]-4-carboxylic acid] | ≥ 75 | A (A is ≧75% inhibition)
15 | 25 to 50 | N#C/C(=C\c1cccc(C2CC2)n1)C(=O)NC1(c2ccc(-c3ccc(C(=O)O)cc3)cc2)CCCC1 [Compound 92, (E)-4′-(1-(2-cyano-3-(6-cyclopropylpyridin-2-yl)acrylamido)cyclopentyl)-[1,1′-biphenyl]-4-carboxylic acid] | ≥ 75 | A (A is ≧75% inhibition)
16 | 25 to 50 | N#C/C(=C\c1cccc(C2CC2)n1)C(=O)NC1(c2ccc(-c3ccc(CC(=O)O)cc3)cc2)CCCC1 [Compound 93, (E)-2-(4′-(1-(2-cyano-3-(6-cyclopropylpyridin-2-yl)acrylamido)cyclopentyl)-[1,1′-biphenyl]-4-yl)acetic acid] | ≥ 75 | A (A is ≧75% inhibition)
17 | < 25 | N#C/C(=C\c1cccc(Br)n1)C(=O)NC1(c2ccc(-c3cccc(C(=O)NS(=O)(=O)c4ccccc4)c3)cc2)CCCC1 [Compound 94, (E)-4′-(1-(3-(6-bromopyridin-2-yl)-2-cyanoacrylamido)cyclopentyl)-N-(phenylsulfonyl)-[1,1′-biphenyl]-3-carboxamide] | 25 to 50 | A (A is ≧75% inhibition)
18 | < 25 | N#C/C(=C\c1cccc(Br)n1)C(=O)NC1(c2ccc(-c3ccc4[nH]ncc4c3)cc2)CCCC1 [Compound 95, (E)-N-(1-(4-(1H-indazol-5-yl)phenyl)cyclopentyl)-3-(6-bromopyridin-2-yl)-2-cyanoacrylamide] | < 25 | D (D is <25% inhibition)
19 | 50 to 75 | N#C/C(=C\c1cccc(Br)n1)C(=O)NC1(c2ccc(-c3ccc4[nH]ccc4c3)cc2)CCCC1 [Compound 96, (E)-N-(1-(4-(1H-indol-5-yl)phenyl)cyclopentyl)-3-(6-bromopyridin-2-yl)-2-cyanoacrylamide] | 50 to 75 | A (A is ≧75% inhibition)
20 | 25 to 50 | CCOC(=O)CN1CCc2ccc(-c3cccc(/C=C(\C#N)C(=O)NC4(c5ccccc5)CCCC4)n3)cc2C1 [Compound 97, (E)-ethyl 2-(7-(6-(2-cyano-3-oxo-3-((1-phenylcyclopentyl)amino)prop-1-en-1-yl)pyridin-2-yl)-3,4-dihydroisoquinolin-2(1H)-yl)acetate] | < 25 | B (B is 50% to 75% inhibition)
21 | < 25 | Cc1ccc(-c2ccc(C3(NC(=O)/C(C#N)=C/c4cccc(Br)n4)CCCC3)cc2)cc1CC(=O)O [Compound 98, (E)-2-(4′-(1-(3-(6-bromopyridin-2-yl)-2-cyanoacrylamido)cyclopentyl)-4-methyl-[1,1′-biphenyl]-3-yl)acetic acid] | < 25 | D (D is <25% inhibition)
22 | 25 to 50 | N#C/C(=C\c1cccc(C2CC2)n1)C(=O)NC1(c2ccc(-c3ccc4[nH]ccc4c3)cc2)CCCC1 [Compound 99, (E)-N-(1-(4-(1H-indol-5-yl)phenyl)cyclopentyl)-2-cyano-3-(6-cyclopropylpyridin-2-yl)acrylamide] | < 25 | C (C is 25% to 50% inhibition)

Row | Structure (SMILES) | inhibition at 5 µM [2] [%] | inhibition at 5 µM [1] [%] | PARP cleavage % Inhibition [3]
23 | N#C/C(=C\c1cccc(Br)n1)C(=O)NC1(c2ccc(CO)cc2)CCCC1 [Compound 86, (E)-3-(6-bromopyridin-2-yl)-2-cyano-N-(1-(4-(hydroxymethyl)phenyl)cyclopentyl)acrylamide] | 25 to 50 | < 25 | B (B is 50% to 75% inhibition)
